Measured values: ChEMBL document CHEMBL1124402, “Potent angiotensin II antagonists with non-beta-branched amino acids in position 5” (1989)
Numbered stars: 1 amine (or outer) side, 2 acyl side, 3 side chain; on linkers, the order of the positions; unused ones are H or OH. Square brackets hold non-standard residues; d marks the D form. Peptide text beside a SMILES is read from it. X1 = CC(c1ccccc1)[C@H](N[*:1])C(=O)[*:2]; Thz(5,5-Me2) = CC1(C)SCN[C@@H]1C(=O)O; dThz(5,5-Me2) = CC1(C)SCN[C@H]1C(=O)O; hPhe = N[C@@H](CCc1ccccc1)C(=O)O; Pen = CC(C)(S)[C@H](N)C(=O)O; Nle = CCCC[C@H](N)C(=O)O; Sar = CNCC(=O)O

Assays:
Rattus norvegicus [1] = test: In vivo angiotensin II like activity determined in rat blood pressure assay measured as increase in BP by 1 ug iv of compound; type: functional
Rattus norvegicus [2] = test: In vivo antagonistic activity was measured in the rat blood pressure assay; type: functional
Oryctolagus cuniculus [3] = species: Oryctolagus cuniculus; test: In vitro antagonist activity was measured in rabbit aorta assay as pA2
Oryctolagus cuniculus [4] = species: Oryctolagus cuniculus; test: pA2 value was evaluated in rabbit aorta assay; type: functional
Rattus norvegicus [5] = test: In vivo angiotensin II like activity expressed in rat blood pressure assay measured as increase in BP by 1 ug bolus intravenous injection of compound; type: functional
[6] = target: Type-1 angiotensin II receptor (Oryctolagus cuniculus) (UniProt P34976); test: In vitro antagonist activity of compound towards angiotensin II like was measured in rabbit aorta assay; details: target entry is the homologue from another species
Rattus norvegicus [7] = test: In vivo residual angiotensin II like activity in an rat blood pressure assay; type: functional; set-up: concentration or dose not given beside the values
Rattus norvegicus [8] = test: In vivo residual angiotensin II like activity in rat blood pressure assay; type: functional

Type-1 angiotensin II receptor (Oryctolagus cuniculus), sequence (P34976 whole entry, looked up): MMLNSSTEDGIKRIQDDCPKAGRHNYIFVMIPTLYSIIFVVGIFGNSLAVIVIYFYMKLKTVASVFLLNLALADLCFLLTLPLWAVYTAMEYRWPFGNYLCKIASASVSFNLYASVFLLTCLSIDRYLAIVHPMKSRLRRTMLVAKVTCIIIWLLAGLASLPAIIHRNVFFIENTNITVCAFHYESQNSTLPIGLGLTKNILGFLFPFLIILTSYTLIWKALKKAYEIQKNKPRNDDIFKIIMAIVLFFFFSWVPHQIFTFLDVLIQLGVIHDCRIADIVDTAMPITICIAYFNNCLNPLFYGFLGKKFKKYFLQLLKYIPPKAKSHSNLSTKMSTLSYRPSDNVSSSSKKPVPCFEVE

`CC[C@H](C)[C@H](NC(=O)[C@@H]1CCCN1C(=O)[C@H](Cc1c[nH]cn1)NC(=O)[C@H](CCCN=C(N)N)NC(=O)[C@H](Cc1ccc(O)cc1)NC(=O)[C@@H](NC(=O)[C@H](CCCN=C(N)N)NC(=O)CNC)C(C)C)C(=O)O` (H-[Sar]RVYRHPI-OH) showed a BP (Rattus norvegicus [1]) of 10 mmHg, an ID50 (Rattus norvegicus [2]) of 15 ng min-1 rat-1 and a pA2 (Oryctolagus cuniculus [3]) of 9.
Work on `CC[C@H](C)[C@H](NC(=O)[C@@H]1CCCN1C(=O)[C@H](Cc1c[nH]cn1)NC(=O)[C@@H](NC(=O)[C@H](Cc1ccc(O)cc1)NC(=O)[C@@H](NC(=O)[C@H](CCCN=C(N)N)NC(=O)CNC)C(C)C)[C@@H](C)OC)C(=O)O` (H-[Sar]RVYT(Me)HPI-OH) yielded a pA2 (Oryctolagus cuniculus [4]) of 9.7 and a BP (Rattus norvegicus [5]) of 7.5 mmHg.
`CCCC[C@H](NC(=O)[C@H](Cc1ccc(O)cc1)NC(=O)[C@@H](NC(=O)[C@H](CCCN=C(N)N)NC(=O)CNC)C(C)C)C(=O)N[C@@H](Cc1c[nH]cn1)C(=O)N1CCC[C@H]1C(=O)N[C@H](C(=O)O)[C@@H](C)CC` (H-[Sar]RVY[Nle]HPI-OH) was tested, and the BP (Rattus norvegicus [5]) was 20 mmHg, the ID50 (Rattus norvegicus [2]) was 20 ng min-1 rat-1 and the pA2 [6] was 8.85.
With `CNCC(=O)N[C@@H](CCCN=C(N)N)C(=O)N[C@H](C(=O)N[C@@H](Cc1ccc(O)cc1)C(=O)N[C@H](C(=O)N[C@@H](Cc1c[nH]cn1)C(=O)N1CCC[C@H]1C(=O)N[C@@H](Cc1ccccc1)C(=O)O)C(C)(C)SC)C(C)C` (H-[Sar]RVY[Pen](Me)HPF-OH) the BP (Rattus norvegicus [1]) was 60 mmHg.
Work on `CC[C@H](C)[C@H](NC(=O)[C@@H]1CCCN1C(=O)[C@H](Cc1c[nH]cn1)NC(=O)[C@@H](NC(=O)[C@H](Cc1ccc(O)cc1)NC(=O)[C@@H](NC(=O)[C@H](CCCN=C(N)N)NC(=O)CNC)C(C)C)C(C)(C)SC)C(=O)O` (H-[Sar]RVY[Pen](Me)HPI-OH) yielded a BP (Rattus norvegicus [5]) of 12.5 mmHg, an ID50 (Rattus norvegicus [2]) of 20 ng min-1 rat-1 and a pA2 [6] of 9.
`CC[C@H](C)[C@H](NC(=O)[C@@H]1CCCN1C(=O)[C@H](Cc1c[nH]cn1)NC(=O)[C@H]1N(C(=O)[C@H](Cc2ccc(O)cc2)NC(=O)[C@@H](NC(=O)[C@H](CCCN=C(N)N)NC(=O)CNC)C(C)C)CSC1(C)C)C(=O)O` (H-[Sar]RVY[Thz(5,5-Me2)]HPI-OH) was tested, and the BP (Rattus norvegicus [5]) was 11.4 mmHg, the ID50 (Rattus norvegicus [2]) was 25 ng min-1 rat-1 and the pA2 [6] was 9.
`CC[C@H](C)[C@H](NC(=O)[C@@H]1CCCN1C(=O)[C@H](Cc1c[nH]cn1)NC(=O)[C@@H](NC(=O)[C@H](Cc1ccc(O)cc1)NC(=O)[C@@H](NC(=O)[C@H](CCCN=C(N)N)NC(=O)CNC)C(C)C)C(C)c1ccccc1)C(=O)O` (stereo partly drawn) (H-[Sar]RVY[X1]HPI-OH) was tested, and the BP (Rattus norvegicus [1]) was 10 mmHg, the ID50 (Rattus norvegicus [2]) was 7.5 ng min-1 rat-1 and the pA2 (Oryctolagus cuniculus [3]) was 9.3.
`CNCC(=O)N[C@@H](CCCN=C(N)N)C(=O)N[C@H](C(=O)N[C@@H](Cc1ccc(O)cc1)C(=O)N1CSC(C)(C)[C@@H]1C(=O)N[C@@H](Cc1c[nH]cn1)C(=O)N1CCC[C@H]1C(=O)N[C@@H](Cc1ccccc1)C(=O)O)C(C)C` (H-[Sar]RVY[dThz(5,5-Me2)]HPF-OH) showed a BP (Rattus norvegicus [1]) of 100 mmHg.
`CC[C@H](C)[C@H](NC(=O)[C@@H]1CCCN1C(=O)[C@H](Cc1c[nH]cn1)NC(=O)[C@H](CCc1ccccc1)NC(=O)[C@H](Cc1ccc(O)cc1)NC(=O)[C@@H](NC(=O)[C@H](CCCN=C(N)N)NC(=O)CNC)C(C)C)C(=O)O` (H-[Sar]RVY[hPhe]HPI-OH) gave a BP (Rattus norvegicus [1]) of 10 mmHg, an ID50 (Rattus norvegicus [2]) of 20 ng min-1 rat-1 and a pA2 (Oryctolagus cuniculus [3]) of 7.75.
In the case of H-NRVYAHPF-OH, the Activity (Rattus norvegicus [7]) is reported as 3%.
In the case of H-NRVYLHPF-OH, the Activity (Rattus norvegicus [7]) is reported as 25%.
H-NRVYPHPF-OH showed an Activity (Rattus norvegicus [8]) of 10%.
With H-NRVYRHPF-OH the Activity (Rattus norvegicus [7]) was 0%.
H-NRVYVHPF-OH [ANGIOTENSIN AMIDE] was tested, and the Activity (Rattus norvegicus [8]) was 100%.
Compound H-NRVYYHPF-OH has an Activity (Rattus norvegicus [7]) of 0%.
